pIC50: −log10 of the molar value.
Assays:
[1] = tested on: HCT116 cells; assay: In vitro cytotoxicity measured by the cell colony formation assay; format: cell-based; settings: Homo sapiens, HCT-116; read-out: IN VITRO ID 50 (nm) HCT116
Protocol: In Vitro Cytotoxicity Measured by the Cell Colony Formation Assay
Four hundred cells (HCT116) were plated in 60 mm Petri dishes containing 2.7 mL of medium (modified McCoy's 5a medium containing 10% fetal bovine serum and 100 units/mL penicillin and 100 µg/mL streptomycin). The cells were incubated in a CO2 incubator at 37° C. for 5 h for attachment to the bottom of Petri dishes. The compounds identified in Example 2 were made up fresh in medium at ten times the final concentration, and then 0.3 mL of this stock solution was added to the 2.7 mL of medium in the dish. The cells were then incubated with drugs for 72 h at 37° C. At the end of incubation the drug-containing media were decanted, the dishes were rinsed with 4 mL of Hank's Balance Salt Solution (HBSS), 5 mL of fresh medium was added, and the dishes were returned to the incubator for colony formation. The cell colonies were counted using a colony counter after incubation for 7 days.

CCNC(=O)O[C@H]1C(=O)[C@@]2(C)C([C@H](OC(=O)c3ccccc3)[C@]3(O)C[C@H](OC(=O)[C@H](O)[C@@H](NC(=O)OC(C)(C)C)c4cccs4)C(C)=C1C3(C)C)[C@]1(OC(C)=O)CO[C@@H]1C[C@@H]2O (some centres unmarked) (hydrate or solvate) [Compound 2722, 3′-Desphenyl-3′-(2-thienyl)-10-N-ethylcarbamoyl docetaxel]
melting point: 166 to 168 °C

CCNC(=O)O[C@H]1C(=O)[C@@]2(C)C([C@H](OC(=O)c3ccccc3)[C@]3(O)C[C@H](OC(=O)[C@H](O)[C@@H](NC(=O)OC(C)(C)C)c4cccs4)C(C)=C1C3(C)C)[C@]1(OC(C)=O)CO[C@@H]1C[C@@H]2O (some centres unmarked) [Compound 2722, 3′-Desphenyl-3′-(2-thienyl)-10-N-ethylcarbamoyl docetaxel]
pIC50 [1]: > 9.00
